Tests used:
human LXRβ = target: T1, human LXRβ (Homo sapiens, UniProt P55055); assay: Ligand-binding test procedure for human LXRβ (3H T0901317 competition, flash plates); conditions: for Binding ratio a/b: IC50 (μM) LXRα binding/IC50 (μM) LXRβ binding; for IC50: biotinylated hLXRβ, tracer 3H T0901317
T1 construct: biotin (biotinylated; biotinylation tag not described); made in house; host or cells: E. coli
T1 sequence (P55055 1-460): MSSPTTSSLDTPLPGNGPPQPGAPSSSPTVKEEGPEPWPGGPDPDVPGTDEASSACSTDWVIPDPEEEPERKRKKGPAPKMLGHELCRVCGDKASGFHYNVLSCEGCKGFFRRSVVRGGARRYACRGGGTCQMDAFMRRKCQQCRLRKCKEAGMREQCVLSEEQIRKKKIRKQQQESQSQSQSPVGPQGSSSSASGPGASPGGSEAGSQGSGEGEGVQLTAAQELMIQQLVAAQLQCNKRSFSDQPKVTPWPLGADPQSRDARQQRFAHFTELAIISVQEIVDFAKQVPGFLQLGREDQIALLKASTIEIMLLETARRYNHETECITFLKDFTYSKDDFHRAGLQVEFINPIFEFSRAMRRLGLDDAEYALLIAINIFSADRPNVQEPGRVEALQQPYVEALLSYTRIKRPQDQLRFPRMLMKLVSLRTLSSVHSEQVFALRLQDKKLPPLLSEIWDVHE
Procedure: Ligand-Binding Test Procedure for Human LXRβ.
Receptor source: E. coli extract from cells expressing biotinylated hLXRβ. Extract was made in a similar buffer as above, but with 50 mM TRIS.
(§1) Washed streptavidin and coated flash plates with wash buffer.
(§2) Diluted receptor extract to give Bmax ˜4000 cpm and add to the wells.
(§3) Wrapped the plates in aluminum foil and stored them at +4° C. over night.
(§4) Made a dilution series in DMSO of the test ligands.
(§5) Made a 5 nM solution of the radioactive tracer in buffer.
(§6) Mixed 250 μl diluted tracer with 5 μl of the test ligand from each concentration of the dilution series.
(§7) Washed the receptor-coated flash plates.
(§8) Added 200 μl per well of the ligand/radiolabel mixture to the receptor-coated flash plates.
(§9) Wrapped the plates in aluminum foil and incubate at +4° C. over night.
(§10) Aspirated wells, and wash the flashed plates. Sealed the plate.
(§11) Measured the remaining radioactivity in the plate.

human LXRα = target: T2, human LXRα (Homo sapiens, UniProt Q13133); assay: Ligand-binding test procedure for human LXRα (3H T0901317 competition, flash plates); conditions: biotinylated hLXRα, tracer 3H T0901317
T2 construct: biotin (biotinylated; biotinylation tag not described); made in house; host or cells: E. coli
T2 sequence (Q13133 1-447): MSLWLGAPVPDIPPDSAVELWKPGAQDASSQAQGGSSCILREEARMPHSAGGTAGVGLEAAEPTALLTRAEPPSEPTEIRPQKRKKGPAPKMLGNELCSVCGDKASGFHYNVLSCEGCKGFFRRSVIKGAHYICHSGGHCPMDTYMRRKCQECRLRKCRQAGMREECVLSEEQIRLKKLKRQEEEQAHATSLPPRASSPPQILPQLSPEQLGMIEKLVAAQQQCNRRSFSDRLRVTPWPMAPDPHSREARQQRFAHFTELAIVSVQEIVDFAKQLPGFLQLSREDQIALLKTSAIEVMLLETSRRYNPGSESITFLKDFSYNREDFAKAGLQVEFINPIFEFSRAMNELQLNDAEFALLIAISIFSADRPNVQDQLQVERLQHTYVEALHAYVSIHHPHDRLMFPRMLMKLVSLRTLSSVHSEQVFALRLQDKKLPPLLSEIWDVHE
Procedure: Ligand-Binding Test Procedure for Human LXRα.
Receptor source: E. coli extract from cells expressing biotinylated hLXRα. Extract was made in a similar buffer as above, but with 50 mM TRIS.
as §1, §2, §3, §4, §5, §6, §7, §8, §9, §10, §11

Row | Binding ratio a/b (human LXRβ) | IC50 (human LXRβ) | IC50 (human LXRα) | SMILES
1 | 36 | 5 nM | 185 nM | Cc1cc(NCc2cncc(-c3c(Cc4ccccc4)cnc4c(C(F)(F)F)cccc34)c2)c(C)cc1CC(=O)O [Example 2, {4-[({5-[3-benzyl-8-(trifluoromethyl)quinolin-4-yl]pyridin-3-yl}methyl)amino]-2,5-dimethylphenyl}acetic acid]
2 | 4 | 813 nM | 3520 nM | Cc1cc(NCc2cscc2-c2c(Cc3ccccc3)cnc3c(C(F)(F)F)cccc23)c(C)cc1CC(=O)O [Example 64, {4-[({4-[3-benzyl-8-(trifluoromethyl)quinolin-4-yl]-3-thienyl}methyl)amino]-2,5-dimethylphenyl}acetic acid]
3 | 3 | 374 nM | 997 nM | O=C(O)Cc1cccc2ccc(OCc3cccc(-c4c(Cc5ccccc5)cnc5c(C(F)(F)F)cccc45)c3)cc12 [Example 86, [7-({3-[3-benzyl-8-(trifluoromethyl)quinolin-4-yl]benzyl}oxy)-1-naphthyl]acetic acid]
4 | 6 | 4 nM | 20 nM | O=C(O)Cc1ccc(NCc2cccc(-c3c(Cc4ccccc4)cnc4c(C(F)(F)F)cccc34)c2)cc1Cl [Example 50, [4-({3-[3-benzyl-8-(trifluoromethyl)quinolin-4-yl]benzyl}amino)-2-chlorophenyl]acetic acid]
5 | 6 | 249 nM | 1380 nM | O=C(O)c1ccc(F)c(NCc2cccc(-c3c(Cc4ccccc4)cnc4c(C(F)(F)F)cccc34)c2)c1 [Example 52, 3-({3-[3-benzyl-8-(trifluoromethyl)quinolin-4-yl]benzyl}amino)-4-fluorobenzoic acid]
6 | 10 | 104 nM | 1070 nM | Cc1cc(C(=O)O)c(C)cc1NCc1cccc(-c2c(C)cnc3c(C(F)(F)F)cccc23)c1 [Example 25, 2,5-dimethyl-4-({3-[3-methyl-8-(trifluoromethyl)quinolin-4-yl]benzyl}amino)benzoic acid]
7 | 6 | 165 nM | 1050 nM | Cn1cc(C(=O)O)c2cccc(NCc3cccc(-c4c(Cc5ccccc5)cnc5c(C(F)(F)F)cccc45)c3)c21 [Example 44, 7-({3-[3-benzyl-8-(trifluoromethyl)quinolin-4-yl]benzyl}amino)-1-methyl-1H-indole-3-carboxylic acid]
8 | 11 | 62 nM | 667 nM | O=C(O)c1ccc2cc(NCc3cccc(-c4c(Cc5ccccc5)cnc5c(C(F)(F)F)cccc45)c3)ccc2c1 [Example 23, 6-({3-[3-benzyl-8-(trifluoromethyl)quinolin-4-yl]benzyl}amino)-2-naphthoic acid]
9 | 4 | 47 nM | 203 nM | O=C(O)c1cc(Cl)c(OCc2cccc(-c3c(Cc4ccccc4)cnc4c(C(F)(F)F)cccc34)c2)c(Cl)c1 [Example 67, 4-({3-[3-benzyl-8-(trifluoromethyl)quinolin-4-yl]benzyl}oxy)-3,5-dichlorobenzoic acid]
10 | 1 | 1560 nM | 1720 nM | O=C(O)c1ccc(COc2cccc(-c3c(Cc4ccccc4)cnc4c(C(F)(F)F)cccc34)c2)c(Cl)c1 [Example 113, 4-({3-[3-benzyl-8-(trifluoromethyl)quinolin-4-yl]phenoxy}methyl)-3-chlorobenzoic acid]
11 | 22 | 28 nM | 615 nM | Cc1c(CC(=O)O)ccc(NCc2cncc(-c3c(Cc4ccccc4)cnc4c(C(F)(F)F)cccc34)c2)c1C [Example 10, {4-[({5-[3-Benzyl-8-(trifluoromethyl)quinolin-4-yl]pyridin-3-yl}methyl)amino]-2,3-dimethylphenyl}acetic acid]
12 | 2 | 477 nM | 1080 nM | O=C(O)c1ccc(Cl)cc1NCc1cccc(-c2c(Cc3ccccc3)cnc3c(C(F)(F)F)cccc23)c1 [Example 91, 2-({3-[3-benzyl-8-(trifluoromethyl)quinolin-4-yl]benzyl}amino)-4-chlorobenzoic acid]
13 | 25 | 182 nM | 4510 nM | O=C(O)c1ccc2cc(NCc3cncc(-c4c(Cc5ccccc5)cnc5c(C(F)(F)F)cccc45)c3)ccc2c1 [Example 6, 6-[({5-[3-Benzyl-8-(trifluoromethyl)quinolin-4-yl]pyridin-3-yl}methyl)amino]-2-naphthoic acid]
14 | 5 | 145 nM | 681 nM | O=C(N[C@@H](Cc1c[nH]cn1)C(=O)O)c1ccc(COc2cccc(-c3c(Cc4ccccc4)cnc4c(C(F)(F)F)cccc34)c2)cc1 [Example 61, N-[4-({3-[3-benzyl-8-(trifluoromethyl)quinolin-4-yl]phenoxy}methyl)benzoyl]histidine]
15 | 7 | 84 nM | 559 nM | O=C(O)C1CCN(C(=O)c2cccc(COc3cccc(-c4c(Cc5ccccc5)cnc5c(C(F)(F)F)cccc45)c3)c2)CC1 [Example 40, 1-[3-({3-[3-benzyl-8-(trifluoromethyl)quinolin-4-yl]phenoxy}methyl)benzoyl]piperidine-4-carboxylic acid]
16 | 18 | 3 nM | 48 nM | Cc1cc(OCc2cncc(-c3c(Cc4ccccc4)cnc4c(C(F)(F)F)cccc34)c2)c(C)cc1CC(=O)O [Example 17, [4-({5-[3-benzyl-8-(trifluoromethyl)quinolin-4-yl]pyridin-3-yl}methoxy)-2,5-dimethylphenyl]acetic acid]
17 | 4 | 535 nM | 2290 nM | O=C(O)Cc1cccc2cc(OCc3cccc(-c4ccnc5c(C(F)(F)F)cccc45)c3)ccc12 [Example 68, [6-({3-[8-(trifluoromethyl)quinolin-4-yl]benzyl}oxy)-1-naphthyl]acetic acid]
18 | 3 | 129 nM | 374 nM | Cc1cnc2c(C(F)(F)F)cccc2c1-c1cccc(CNc2cccc3c(C(=O)O)cccc23)c1 [Example 80, 5-({3-[3-methyl-8-(trifluoromethyl)quinolin-4-yl]benzyl}amino)-1-naphthoic acid]
19 | 6 | 538 nM | 3270 nM | O=C(O)c1cccc2c(NCc3cccc(-c4ccnc5c(C(F)(F)F)cccc45)c3)cccc12 [Example 48, 5-({3-[8-(trifluoromethyl)quinolin-4-yl]benzyl}amino)-1-naphthoic acid]
20 | 8 | 427 nM | 3330 nM | Cc1cc(NCc2ccsc2-c2c(Cc3ccccc3)cnc3c(C(F)(F)F)cccc23)c(C)cc1CC(=O)O [Example 32, {4-[({2-[3-benzyl-8-(trifluoromethyl)quinolin-4-yl]-3-thienyl}methyl)amino]-2,5-dimethylphenyl}acetic acid]
21 | 2 | 481 nM | 723 nM | O=C(O)c1cc(F)cc(Oc2cccc(-c3c(Cc4ccccc4)cnc4c(Cl)cccc34)c2)c1 [Example 123, 3-[3-(3-Benzyl-8-chloroquinolin-4-yl)phenoxy]-5-fluorobenzoic acid]

Source: US20090069373A1, “Quinoline Acids” (Wyeth, priority 2007, published 2009)
